Converted amounts (≈) assume the structure as drawn. Values belong to the compound of their own block, whether it stands above or below them.
Key:
in vivo = settings: Wistar Han, rat, urine, iv, 1 mg/kg
physchem [1] = experiment: physchem
physchem [2] = settings: buffer, pH 7.4
[3] = Drug excretion in cynomolgus monkey urine assessed as compound recovered at 1 mg/kg, iv measured over 24 hrs by LC/MS analysis; format: ADME, organism-based, Macaca fascicularis; settings: read-out: Drug recovery
[4] = Thermodynamic solubility of the compound in sodium phosphate buffer at pH 7.4 after 24 hrs by nitrogen detection method; format: physicochemical; settings: read-out: Therm_solubility
[5] = Volume of distribution at steady state in Wistar Han rat at 1 mg/kg, iv via bolus dose measured up to 24 hrs post dose by LC-MS/MS analysis; format: ADME, organism-based; settings: in vivo, read-out: Vdss
[6] = Volume of distribution at steady state in cynomolgus monkey at 1 mg/kg, iv via bolus dose measured up to 24 hrs post dose by LC-MS/MS analysis; format: ADME, organism-based, Macaca fascicularis; settings: in vivo, read-out: Vdss
[7] = Cmax in Wistar Han rat at 3 mg/kg via oral gavage measured up to 24 hrs post dose by LC-MS/MS analysis; format: ADME, organism-based; set-up: dose 3 mg/kg, route oral; settings: in vivo
[8] = Cmax in cynomolgus monkey at 3 mg/kg via oral gavage measured up to 24 hrs post dose by LC-MS/MS analysis; format: ADME, organism-based, Macaca fascicularis; set-up: dose 3 mg/kg, route oral; settings: in vivo
[9] = Tmax in Wistar Han rat at 3 mg/kg via oral gavage by LC-MS/MS analysis; format: ADME, organism-based; settings: in vivo
[10] = Tmax in cynomolgus monkey at 3 mg/kg via oral gavage by LC-MS/MS analysis; format: ADME, organism-based, Macaca fascicularis; settings: in vivo
Rattus norvegicus [11] = experiment: (§1) AUC (0 to 24 hrs) in Wistar Han rat at 1 mg/kg, iv via bolus dose measured up to 24 hrs post dose by LC-MS/MS analysis; format: ADME, organism-based; set-up: time < 24 hr, dose 1 mg/kg, route intravenous; settings: in vivo, 24 h
Rattus norvegicus [12] = experiment: (§2) AUC (0 to 24 hrs) in Wistar Han rat at 3 mg/kg via oral gavage measured up to 24 hrs post dose by LC-MS/MS analysis; format: ADME, organism-based; set-up: dose 3 mg/kg, time < 24 hr, route oral; settings: in vivo, 24 h
[13] = AUC (0 to 24 hrs) in cynomolgus monkey at 1 mg/kg, iv via bolus dose measured up to 24 hrs post dose by LC-MS/MS analysis; format: ADME, organism-based, Macaca fascicularis; set-up: time < 24 hr, dose 1 mg/kg, route intravenous; settings: in vivo
[14] = AUC (0 to 24 hrs) in cynomolgus monkey at 3 mg/kg via oral gavage measured up to 24 hrs post dose by LC-MS/MS analysis; format: ADME, organism-based, Macaca fascicularis; set-up: time < 24 hr, dose 3 mg/kg, route oral; settings: in vivo
Rattus norvegicus [15] = experiment: (§3) Oral bioavailability in Wistar Han rat at 3 mg/kg via gavage measured up to 24 hrs post dose by LC-MS/MS analysis; format: ADME, organism-based; settings: in vivo, 24 h
[16] = Oral bioavailability in cynomolgus monkey at 3 mg/kg via gavage measured up to 24 hrs post dose by LC-MS/MS analysis; format: ADME, organism-based, Macaca fascicularis; settings: in vivo
[17] = rat, in vivo, iv, 1 mg/kg, 24 h
[18] = as §1; format: ADME, organism-based; set-up: time < 24 hr, dose 1 mg/kg, route intravenous; settings: Wistar Han, in vivo
[19] = as §2; format: ADME, organism-based; set-up: dose 3 mg/kg, time < 24 hr, route oral; settings: Wistar Han, in vivo
[20] = as §3; format: ADME, organism-based; settings: Wistar Han, in vivo

dose excreted at 24 h (in vivo): 12%
pKa (physchem [1]): 5.4 to 7.1
logD (physchem [2]): 1.8
Compound: O=C(O)c1c[nH]c2cc(Cl)c(-c3ccc(OCCCN4CCOCC4)cc3)cc12

dose excreted at 24 h (in vivo): 10%
pKa (physchem [1]): 4.8
logD (physchem [2]): 1.1
Compound: O=C(O)c1c[nH]c2cc(Cl)c(-c3ccc(OCCO)cc3)cc12

pKa (physchem [1]): 4.6
logD (physchem [2]): 1.1
Compound: N#Cc1cc2[nH]cc(C(=O)O)c2cc1-c1ccc(C2(O)CCC2)cc1

dose excreted at 24 h (in vivo): 10.7%
pKa (physchem [1]): 4.9
logD (physchem [2]): 1.3
Compound: O=C(O)c1c[nH]c2cc(F)c(-c3ccc(C4(O)CCC4)cc3)c(F)c12

pKa (physchem [1]): 4.8
logD (physchem [2]): 2.1
Compound: COc1ccc(-c2cc3c(C(=O)O)c[nH]c3cc2Cl)c(OC)n1

pKa (physchem [1]): 4.7 to 6.2
logD (physchem [2]): 1.7
Compound: CN(C)c1ccc(-c2cc3c(C(=O)O)c[nH]c3cc2Cl)cn1

More lines, now with the values behind:

Compound: O=C(O)c1c[nH]c2cc(Cl)c(-c3ccc(C4CCCCO4)cc3)cc12 (stereo unspecified)
pKa (physchem [1]): 4.9
logD (physchem [2]): 2.8

Compound: COCCOc1ccc(-c2cc3c(C(=O)O)c[nH]c3cc2Cl)cc1
pKa (physchem [1]): 5
logD (physchem [2]): 1.8

Compound: COc1nc(N(C)C)ccc1-c1cc2c(C(=O)O)c[nH]c2cc1Cl
dose excreted at 24 h [3]: < 1%
solubility thermodynamic at 24 h [4]: 120 µM (≈ 41.5 µg/mL)
Vd [5]: 0.1 L/kg
Vd [6]: 0.46 L/kg
Cmax [7]: 10200 ng/mL
Cmax [8]: 2540 ng/mL
Tmax [9]: 5.5 h
Tmax [10]: 1.5 h
AUC (Rattus norvegicus [11]): 254000 ng·h/mL
AUC (Rattus norvegicus [12]): 160000 ng·h/mL
AUC(0-t) at 24 h [13]: 15500 ng·h/mL
AUC(0-t) at 24 h [14]: 31200 ng·h/mL
F (Rattus norvegicus [15]): 52%
bioavailability [16]: 67%
Drug recovery [17]: 1 ng/mL
pKa (physchem [1]): 2.6 to 4.9
logD (physchem [2]): 2.3

Compound: O=C(O)c1c[nH]c2cc(F)c(-c3ccc([C@H]4CCCCO4)cc3)c(F)c12
logD (physchem [2]): 2

Compound: COc1ccc(-c2cc3c(C(=O)O)c[nH]c3cc2Cl)cn1
pKa (physchem [1]): 2.4 to 4.9
logD (physchem [2]): 1.8

Compound: O=C(O)c1c[nH]c2cc(F)c(-c3ccc([C@@H]4CCCCO4)cc3)c(F)c12
dose excreted at 24 h [3]: 2.2%
solubility thermodynamic at 24 h [4]: 14 µM (≈ 5 µg/mL)
Vd [5]: 0.31 L/kg
Vd [6]: 0.3 L/kg
Cmax [7]: 1890 ng/mL
Cmax [8]: 8180 ng/mL
Tmax [9]: 2.7 h
Tmax [10]: 2 h
AUC(0-t) at 24 h [18]: 16400 ng·h/mL
AUC(0-t) at 24 h [19]: 12800 ng·h/mL
AUC(0-t) at 24 h [13]: 35900 ng·h/mL
AUC(0-t) at 24 h [14]: 91600 ng·h/mL
bioavailability [20]: 26%
bioavailability [16]: 85%
dose excreted at 24 h (in vivo): 1.6%
pKa (physchem [1]): 5
logD (physchem [2]): 1.9
